Measurements: patent US10285994B2, “Method of preventing or treating osteoporosis by neddylation inhibitor” (Chang Gung University, priority 2017, dated 2019)

How the values were obtained:
UBA3 = assay: Western blot of UBA3 expression in RAW264.7 cells; assay type: cell-based, mouse; conditions: siRNA-transfected RAW264.7, FIG. 5B
Method: (§1) FIGS. 5A-5D are the data respectively depicting the effect of sRANKL on the neddylation pathway and the knockdown effect of UBA3 siRNA on macrophages during osteoclast differentiation according to example 4 of the present disclosure. FIG. 5A: RAW264.7 mouse macrophages were seeded on wells and were treated with various concentrations of sRANKL (0-100 ng/ml). After 72 hours' incubation, the cells were lysed and subjected to Western blotting analysis using specific antibodies in neddylation pathway. FIG. 5B: RAW264.7 mouse macrophages were seeded on wells and transfected with UBA3 or scrambled siRNA. After culture, the transfected cells were harvested, lysed, and further analyzed by Western Blot for checking NEDD8, UBA3, and APPBP1 expressions. FIGS. 5C and 5D: the UBA3 or scrambled siRNA transfected RAW264.7 cells were further treated with sRANKL (50 ng/ml), after 3-day induction, the morphological change of macrophages to TRAP-stained positive giant osteoclasts were photographed and further counted. Data are expressed as mean±SD where *p<0.05.
The RAW264.7 cells were starved with serum-free medium for six hours and then treated with the specified treatments. At indicated time points, the cells were washed with cold phosphate-buffered saline (PBS) and lysed in RIPA buffer containing complete protease inhibitor cocktail (Roche). […]

RAW264.7 cells = assay: UBA3 knockdown on osteoclast differentiation, count of TRAP-positive giant osteoclasts; assay type: cell-based, mouse; conditions: siRNA-transfected RAW264.7, sRANKL 50 ng/ml, 3 days, FIG. 5C-5D
Method: as §1, with “*p<0.05. […]” for “*p<0.05.”
Six hours' post-transfection, the cells were treated with sRANKL (50 ng/ml). Three days later, the effect of UBA3 knockdown on mature giant osteoclast formation on wells was photographed and counted. […]

Substance	knockdown of UBA3 expression (UBA3)	differentiating number of giant osteoclasts (RAW264.7 cells)
UBA3 siRNA 2: siRNA targeting UBA3, sense SEQ ID NO: 3, anti-sense SEQ ID NO: 4 (sense GGAUCAAUGGAAUGCUGAUTT; antisense TTCCUAGUUACCUUACGACUA; chemistry not given here; one strand is listed 3' to 5')	can knockdown the expression of UBA3	significantly diminished the differentiating number of giant osteoclasts
UBA3 siRNA 3: siRNA targeting UBA3, sense SEQ ID NO: 5, anti-sense SEQ ID NO: 6 (sense CCAAGCUCCAUUGUACCUUTT; antisense TTGGUUCGAGGUAACAUGGAA; chemistry not given here; one strand is listed 3' to 5')	can knockdown the expression of UBA3	significantly diminished the differentiating number of giant osteoclasts
